Assay results: article PMC12771125, “Compounds Reducing Human Sperm Motility as Potential Nonhormonal Contraceptives Identified Using a High-Throughput Phenotypic Screening Platform” (ACS Omega, 2025)
Converted amounts (≈) assume the structure as drawn. Where two headings read alike, the source gives them in different places.

Legend:
human sperm = assay: Reduction of sperm motility (RSM) high-throughput phenotypic assay; format: cell-based; settings: for EC50: Homo sapiens, reduction of progressive sperm motility relative to control
Experimental: Using our previously established phenotypic human sperm motility screening platform, we screened a large subset (62,621 compounds) of one of our in-house diversity libraries (National Phenotypic Screening Centre (NPSC) Diversity Set) (Figure A,B). Briefly, human sperm are collected, isolated from semen, distributed into 384-well plates with test compounds, time-lapse images of sperm movement are recorded using a high-content imager, and progressive motility parameters are calculated using custom data analysis software. Sperm motility is complicated, and the mechanisms underpinning its regulation are not fully understood. Progressive motility, which is a measurement of the movement of forward progression of sperm, is most closely linked to sperm quality, and the percentage of progressively motile sperm compared to control is therefore the parameter utilized during the work described in this paper. […]
We used an HTS screening platform to assess the motility of live human spermatozoa. The platform and its development are described in detail in Gruber et al. , and summarized below in brief. The platform was used to screen compound libraries specifically focusing on reduction in motility. Interesting compounds were examined in further detail as possible starting points for a medicinal chemistry program. The experimental design is illustrated in Figure .
Donors were local to the Dundee area, over the age of 18, and had no known fertility problems and normal sperm concentration, motility and semen characteristics according to WHO 2021 criteria. Special category personal data for donors, such as ethnic origin, was not recorded in accordance with ethical approval and UK GDPR. Samples were obtained by masturbation, after sexual abstinence of 2–5 days, and delivered to the research laboratory within one h of production. Samples were allowed to liquefy at 37 °C for 15–30 min prior to preparation by discontinuous density gradient centrifugation (DGC). […] A minimum of 3 prepared donor samples were routinely pooled to reduce donor-to-donor variability for primary screening assays. Pooled samples were incubated for 3 h at 37 °C under noncapacitating conditions.
In brief, screening batches of cells were transferred to a robotic platform (HighRes Biosolutions Inc.) and maintained during the screen at 37 °C at 5% CO2. Assay-ready 384-well plates containing compounds were prepared prior to the screen and filled with approximately 10,000 spermatozoa (20 μL) per well using a liquid handling system (MultiDrop Combi; ThermoFisher). These plates were incubated for 10 min prior to imaging. The HTS system utilized a Yokogawa CV7000 Cell Voyager high-throughput microscope to record time-lapse images from 2 positions in each well. An adaptation of a tracking algorithm, Trackpy v0.4.1 was utilized to track individual spermatozoa within each well and obtain kinematic parameters. Within the compound-test plates, DMSO was used as the vehicle control.
All steps were performed as previously described. , In summary, data from every compound well were normalized to those from in-plate DMSO controls (wells containing the same amount of DMSO as compound wells). Two positions were recorded in every well, and the average of those positions was used for calculating % of control (median value/DMSO median) × 100. Each plate contained 16 DMSO control wells. Median curvilinear velocity (VCL) was used as the primary readout for the NPSC Diversity Set screened at 6 μM, and percentage progressive motility (PM) was used for all other libraries screened. Hits from the primary screening were chosen based on the % change compared to the control. In these experiments, an RSM of ≥20% compared to negative controls (DMSO) was chosen as a cutoff for potential progression.
In a screening program of this scale, a significant number of compounds are likely to have a negative effect on sperm motility, but a number will show general toxicity. […]

HepG2 cells = assay: HepG2 cytotoxicity assay (resazurin, 72 h); format: cell-based, human; settings: for EC50: Homo sapiens, HepG2, 72 h, read-out: HepG2 pEC50 (converted)
Text: Our overarching aims for investigating our chemical series and deciding which ones had the potential for further progression were to achieve adequate potency in our motility assay, suitable solubility, and minimal cytotoxicity in HepG2 cells. This third point was often the most challenging, as multiple series had cytotoxicity in HepG2 cells. This observation is perhaps not surprising; many potential targets in sperm cells can also be found in somatic cells. Our cytotoxicity assay is run with an incubation time of 72 h, to give time for gross cytotoxic effects to become apparent.
Compound dilution curves were plated directly using a Labcyte Echo 550 acoustic dispenser (125 nL) in 384-well white clear-bottom plates (Greiner). HepG2 cells (ATCCHepG2 HB-8065) were cultured in minimum essential medium (supplemented with glutamax) with 10% FCS and plated (25 μL) using a WellMate dispenser ([…]) and incubated for 72 h. Doxorubicin was used as a positive control drug. Resazurin was then added to each well at a final concentration of 45 μM, and fluorescence was measured using a PHERAstar LS (BMG Labtech) after 4 h of further incubation (excitation of 528 nm and emission of 590 nm). Raw data were normalized to controls and expressed as % growth.
Figure S2: Concentration-response curves from high throughput HepG2 viability assay. Each compound was tested in duplicate and the curves of each replicate are shown. The reported values in the tables are an average of the 2 pEC50 values obtained. […]
determine 0% effect, positive control used to determine 100% effect).
Hit compounds 1a, 6b and 7a were repurchased from commercial suppliers including enamine and […]

Aqueous solubility = format: physicochemical
[1] = 10 min, 10 min incubation, reported <X (neg. log of top concentration) if largest reduction <70%, read-out: RSM pEC50 10 mins (converted)
[2] = 3 h incubation, reported <X if largest reduction <70%, read-out: RSM pEC50 3 hrs (converted)
[3] = 6 h incubation, reported <X if largest reduction <70%, read-out: RSM pEC50 6 hrs (converted)

EC50 (human sperm; [1]) [µM] | solubility (Aqueous solubility) [µM] | EC50 (human sperm; [2]) [µM] | EC50 (human sperm; [3]) [µM] | SMILES | difference between pEC50 in the sperm motility assay and pEC50 in the HepG2 cytotoxicity assay (human sperm) | EC50 (HepG2 cells) [µM] | increase in potency in the sperm motility assay (human sperm; after 6 h incubation, compared with hit 2a) [log-unit] | increase in cytotoxicity against HepG2 cells (HepG2 cells; compared with hit 2a) [log]
1 | 4.5 (≈ 1.47 µg/mL) | – | – | O=C(Nc1ccc([N+](=O)[O-])cc1Cl)c1cc(Cl)ccc1O [Compound 1a, Niclosamide, reference compound] | 0.5 log units | 3.16 | – | –
12.6 | 53 (≈ 23.8 µg/mL) | 20 | 10 | NCCN(C(=O)c1ccc(Cl)cc1Cl)c1ccc(OCc2ccc(Cl)cc2)cc1 [Compound 1b, N-(2-Aminoethyl)-2,4-dichloro-N-(4-((4-chlorobenzyl)oxy)phenyl)benzamide] | – | 5.01 | – | –
3.98 | 60 (≈ 17.2 µg/mL) | – | – | Cc1cc(NC(=O)c2cc(Cl)ccc2O)ccc1C#N [Compound 1c] | – | 25.1 | – | –
2.51 | 35 (≈ 10.2 µg/mL) | – | – | N#Cc1ccc(NC(=O)c2cc(Cl)ccc2O)cc1F [Compound 1d] | – | 6.31 | – | –
5.01 | 4.1 (≈ 1.16 µg/mL) | – | – | O=C(Nc1cccc(Cl)c1)c1cc(Cl)ccc1O [Compound 1f] | – | 6.31 | – | –
5.01 | 11 (≈ 3 µg/mL) | – | – | N#Cc1ccc(NC(=O)c2cc(Cl)ccc2O)cc1 [Compound 1g] | – | 2.51 | – | –
> 20 | 100 (≈ 27.4 µg/mL) | – | – | N#Cc1ccc(NC(=O)c2cc(Cl)ccc2O)cn1 [Compound 1h] | – | 20 | – | –
> 20 | 0.64 (≈ 0.216 µg/mL) | – | – | O=C(Nc1ccc(OCc2ccccc2)cc1)c1ccccc1Cl [Compound 1k] | – | > 100 | – | –
> 31.6 | 240 (≈ 74.2 µg/mL) | > 31.6 | > 31.6 | NCCN(C(=O)c1ccccc1Cl)c1ccc(Cl)cc1 [Compound 1l] | – | 79.4 | – | –
> 31.6 | 73 (≈ 22.7 µg/mL) | > 31.6 | > 31.6 | NCCN(C(=O)c1ccc(F)cc1F)c1ccc(Cl)cc1 [Compound 1n] | – | > 100 | – | –
3.98 | 30 (≈ 15.2 µg/mL) | 2.51 | 2 | COc1cc(N2CCOCC2)ccc1Nc1ncc(Cl)c(Nc2ccccc2NS(C)(=O)=O)n1 [Compound 2a, N-(2-((5-Chloro-2-((2-methoxy-4-morpholinophenyl)amino)pyrimidin-4-yl)amino)phenyl)methanesulfonamide, reference compound] | – | 3.98 | – | –
2.51 | 2.2 (≈ 1.03 µg/mL) | – | – | CNC(=O)c1ccccc1Nc1nc(Nc2ccc(N3CCOCC3)cc2OC)ncc1Cl [Compound 2b] | – | 2 | – | –
5.01 | 2.3 (≈ 1.2 µg/mL) | 3.16 | 3.98 | CS(=O)(=O)Nc1cc(F)ccc1Nc1nc(Nc2ccc(C(=O)N3CCOCC3)cc2)ncc1Cl [Compound 2c] | – | 7.94 | – | –
> 31.6 | 64 (≈ 32.2 µg/mL) | 0.126 | 0.126 | CN(c1ccccc1Nc1nc(Nc2ccc(CN3CCOCC3)cc2)ncc1Cl)S(C)(=O)=O [Compound 2d] | – | 0.398 | 1 | 1
3.98 | 27 (≈ 13.7 µg/mL) | 2 | 1.58 | CS(=O)(=O)Nc1cc(F)ccc1Nc1nc(Nc2ccc(CN3CCNCC3)cc2)ncc1Cl [Compound 2e] | – | 15.8 | – | –
> 31.6 | 16 (≈ 6.37 µg/mL) | > 31.6 | > 31.6 | CS(=O)(=O)Nc1ccccc1Nc1nc(NC2CCOCC2)ncc1Cl [Compound 2f] | – | 5.01 | – | –
> 31.6 | 1.2 (≈ 0.399 µg/mL) | > 31.6 | 7.94 | O=C(Nc1nc(-c2ccccn2)cs1)Nc1ccc(F)cc1F [Compound 3b, 1-(2,4-Difluorophenyl)-3-(4-(pyridin-2-yl)thiazol-2-yl)urea] | – | 7.94 | – | –
> 31.6 | 100 (≈ 31.6 µg/mL) | > 31.6 | > 31.6 | O=C(Nc1nc(-c2ccccn2)cs1)c1ccccc1Cl [Compound 3c] | – | > 100 | – | –
> 31.6 | 1.5 (≈ 0.499 µg/mL) | > 31.6 | > 31.6 | O=C(Nc1nc(-c2cccnc2)cs1)Nc1ccc(F)cc1F [Compound 3d] | – | > 100 | – | –
> 31.6 | 0.24 (≈ 0.0795 µg/mL) | > 31.6 | > 31.6 | O=C(Nc1nc(-c2ccccc2)cs1)Nc1ccc(F)cc1F [Compound 3e] | – | 50.1 | – | –
> 31.6 | 0.29 (≈ 0.107 µg/mL) | > 31.6 | > 31.6 | O=C(Nc1nc(-c2ccc(F)cc2F)cs1)Nc1ccc(F)cc1F [Compound 3f] | – | > 100 | – | –
> 31.6 | 0.89 (≈ 0.265 µg/mL) | > 31.6 | > 31.6 | CC(C)c1csc(NC(=O)Nc2ccc(F)cc2F)n1 [Compound 3g] | – | > 100 | – | –
> 31.6 | 220 (≈ 67 µg/mL) | > 31.6 | > 31.6 | O=C(Nc1nc(-c2ccccn2)cs1)NC1CCOCC1 [Compound 3i] | – | > 100 | – | –
> 31.6 | 140 (≈ 36.7 µg/mL) | > 31.6 | > 31.6 | CC(C)NC(=O)Nc1nc(-c2ccccn2)cs1 [Compound 3j] | – | > 100 | – | –
> 31.6 | 130 (≈ 39.4 µg/mL) | > 31.6 | > 31.6 | O=C(Nc1nc(-c2ccccn2)cs1)NC1CCNCC1 [Compound 3k] | – | > 100 | – | –
> 31.6 | 9.3 (≈ 2.57 µg/mL) | > 31.6 | 7.94 | CC(C)CNC(=O)Nc1nc(-c2ccccn2)cs1 [Compound 3l] | – | > 100 | – | –
> 31.6 | 0.38 (≈ 0.132 µg/mL) | 15.8 | 2 | Cc1sc(NC(=O)Nc2ccc(F)cc2F)nc1-c1ccccn1 [Compound 3m] | less than 1 log units | 12.6 | – | –
12.6 | 200 (≈ 52.2 µg/mL) | 5.01 | 3.98 | CC(=O)Nc1nc2c(Cl)c(Cl)ccc2s1 [Compound 4a, N-(4,5-Dichlorobenzo[d]thiazol-2-yl)acetamide] | ~1 log units | 50.1 | – | –

SMILES | EC50 (human sperm; [1]) [µM] | solubility (Aqueous solubility) [µM] | EC50 (human sperm; [2]) [µM] | EC50 (human sperm; [3]) [µM] | difference between pEC50 in the sperm motility assay and pEC50 in the HepG2 cytotoxicity assay (human sperm) | EC50 (HepG2 cells) [µM] | increase in potency in the sperm motility assay (human sperm; after 6 h incubation, compared with hit 2a) [log-unit] | increase in cytotoxicity against HepG2 cells (HepG2 cells; compared with hit 2a) [log]
N#Cc1ccc(NC(=O)c2cc(Cl)ccc2O)cc1Cl [Compound 1e] | 2.51 | 2.3 (≈ 0.706 µg/mL) | – | – | – | 5.01 | – | –
COc1ccc(Cl)cc1C(=O)Nc1ccc(C#N)c(Cl)c1 [Compound 1j] | > 20 | 0.19 (≈ 0.061 µg/mL) | – | – | – | > 100 | – | –
